Experimental data from patent US8895522B2, “Composition and method for the prevention, treatment and/or alleviation of an inflammatory disease” (Index Pharmaceuticals AB, priority 2005, dated 2014).
Entries after “also recorded” stand apart in the source; their conditions may differ.

Assays:
[1] = tested on: LPS induced airway inflammation in mice; test: First animal study: LPS-induced airway inflammation in mice, analysis of leukocytes in BALF; type: in vivo, C57BL/6 mice
Description: C57BL/6 mice were purchased from Bomholtgaard, Ry, Denmark. Animals were fed with standard chow and water ad libitum and allowed to acclimatize for at least 7 days in an accredited animal facility before use. In all experiments female mice of ages between 9-11 weeks were used. All experiments were approved by the local ethical committee for animal experiments in Umea, Sweden.
Bacterial endotoxin, LPS (Escherichia coli 0128:B12, Sigma, St. Louis, Mo.) was administered to anaesthetised mice (enflurane) by tracheal instillation in a total volume of 50 μl in a concentration of 5 μg. Control mice were given solvent alone (endotoxin-free distilled water). Through previous experiments the optimum concentration of LPS was determined to be 5 μg.
The mice were sacrificed by cervical dislocation 20 h after LPS instillation and their tracheae was cannulated with polyethylene tubing. Bronchoalveolar 20 lavage (BAL) was performed using 1-ml aliquots of ice-cold Hanks balanced salt solution to a recovered volume of 4 ml. Total number of leucocytes in bronchoalveolar lavage fluid (BALF) was counted using a Bürker chamber and trypan blue solution. Differential cell counts were determined on duplicate cytocentrifuged preparations stained with May-Grünewald Gemisa. Three 25 hundred cells were counted from each slide and the percentage of neutrophils determined.
Mice were treated with an experimental oligonucleotide (SEQ.ID.NO 3, in concentrations of 25 μg, 100 μg or 150 μg. The oligonucleotide was administrated by tracheal instillation to anaesthetised mice in a total volume of 50 μl 18 h prior to instillation of 5 μg LPS. Control mice received 50 μl endotoxin-free distilled water.
To compare the effect of the oligonucleotide to conventional treatment with anti-inflammatory corticosteroids, one group of mice received dexamethasone (Sigma St Louis, Mo.). Dexamethasone (10 mg/kg body weight) dissolved in PBS was 6(12) injected intraperitoneally (i.p) into mice 1 h prior LPS exposure. […]
The results are expressed as mean+standard error of the mean (SEM). […]

[2] = tested on: LPS-induced airway inflammation in mice; test: Third LPS induced asthma study in mice, BALF cell counts; type: in vivo; details: for influx of leukocytes in BALF compared to the control group / influx of neutrophils in BALF compared to the control group: 150 μg/animal, significance if the non-responding control individual is excluded; for influx of leukocytes in BALF compared to the control group: FIG. 7; for influx of neutrophils in BALF compared to the control group: FIG. 8; for number of infiltrating inflammatory cells in the BAL fluid: oligonucleotides 150 μg/animal tracheal 18 h prior to LPS, dexamethasone 5 mg/kg i.p. 1 h before, FIG. 6
Description: As with examples 1 and 2, aim of the study was to examine the pharmaceutical effects of SEQ. ID. NO. 3 using airway inflammation as disease endpoint, and to compare the efficacy with that of corticosteroids. In addition, a number of control oligonucleotides were included being SEQ.ID.NO 4, and SEQ.ID.NO 7. The induction of LPS induced asthma and the protocol of analyses was conducted as described in Example 2.
Briefly, LPS-induced airway inflammation in mice was treated with SEQ.ID.NOs 3, 4 and 7 (150 μg/animal) administered by tracheal instillation 18 h prior to challenge with 5 μg LPS. The untreated group represents healthy individuals and mice in the control group were given solvent only (H2O+LPS). The control treatment of dexamethasone (5 mg/kg, i.p.) was given one hour before LPS instillation. Analysis of BAL fluid was performed 20 hours after LPS instillation. The total number of leukocytes and neutrophils in BAL fluid is shown. Data expressed as mean±SD (n=6). ***p<0.001, *p<0.05, using One-way ANOVA with Dunnett's post hoc corrections versus control group.

murine spleen cells [3] = test: Induction of IFN-gamma from murine spleen cells (ELISpot); type: cell-based; details: mouse splenocytes, 48 hours incubation, FIG. 10
Description: (§1) The spleen was excised from a test animal. A single cell suspension was prepared using a nylon cell strainer (100 μm). The cells were washed once in complete RPMI medium at 1200 rpm for 7-10 minutes, whereupon the supernatant was poured off and the cells resuspended. 1 ml of “red blood cell lysing buffer” was added, and the mixture incubated for 1-2 minutes at RT. 5 ml of complete RPMI was added and the mixture centrifuged as above (C2).
(§2) The supernatant was poured off, the pellet resuspended and another 5 ml of complete RPML added. The cells were counted by dilution in trypan blue, so that between 50-100 cells were counted in the area.
(§3) Approximately 500,000 mouse splenocyte cells per well were incubated for 48 hours in the presence of the different oligonucleotides at the concentrations indicated. Specifically, SEQ.ID.NO 3, SEQ.ID.NO 4, and SEQ.ID.NO 7. Following incubation the wells were developed according to the kit suppliers recommendations and the average number of positive spots per well were determined using a AID ELISpot reader system, (Strassberg Germany).
Regarding the production of IFN-gamma, mouse splenocytes were treated as described above, with the intention to monitor levels of IFN-gamma by Elispot asssy. Identical conditions and concentrations of oligonucleotides where used.
(§4) Elispot assays where performed according to the manufactures recommended guidelines (MabTech) and the plates were analyzed using an AID ELISpot reader system (Autoimmun Diagnostika GmbH, Strassberg, Germany).

[4] = tested on: LPS induced airway inflammation in mice; test: Second LPS induced asthma study in mice, BALF cell counts; type: in vivo; details: single dose 150 ug tracheal instillation 18 h prior to LPS; BALF 20 h; p=0.005
Description: As with example 2, aim of the study was to examine the pharmaceutical effects of SEQ. ID. NO. 3 using airway inflammation as disease endpoint, and to compare the efficacy with that of corticosteroids. This study included larger numbers of animals per group to increases statistical significance. The induction of LPS induced asthma and the protocol of analyses was conducted as described in example 2.
Briefly, mice were treated with an SEQ.ID.NO 3 (150 μg/animal) administered by tracheal instillation 18 h prior to challenge with 5 μg LPS. One group of mice represented healthy untreated individuals. Control mice were given solvent only (H2O) and LPS. One group received dexamethasone (5 mg/kg) one hour before LPS instillation and one group were given a combination treatment. Analysis of BALF was performed 20 hours after the last treatment. Total number of cells in BALF and number of neutrophils is shown. Data is expressed as mean±SD. ***=p<0.001 and **=p<0.01, in treated groups vs the control group (one-way ANOVA and Bonferroni post hoc test). Calculations were performed by SPSS software (12.0). n=6 in all groups.

murine spleen cells [5] = test: Induction of IL-10 from murine spleen cells (ELISpot); type: cell-based; details: mouse splenocytes, 48 hours incubation; for induction of IL-10 (positive spots per well): FIG. 9
Description: as §1, §2, §3, §4

human PBMC [6] = test: Induction of IL-10 from healthy human PBMC (ELISpot); type: cell-based; details: PBMC from 5 healthy individuals, 48 hours; for induction of IL-10 producing cells: FIG. 11
Description: (§5) Whole blood was obtained from healthy blood donors. PBMCs were prepared from 30 ml whole blood according to the following protocol:
(§6) 30 ml blood was transferred directly into heparinized tubes. All blood was transferred into one 50 ml Falcon tube and PBS added up to 50 ml. 15 ml Ficoll (17-1440-03, obtained from Amersham Bioscience AB, Uppsala) was then added into two falcon tubes (50 ml). The PBS-treated blood was then carefully added on the top of to Ficoll, 25 ml to each tube. The tubes were then centrifuged 25 min at 1700 RPM at RT (20° C.).
(§7) RPMIc medium was prepared under sterile conditions, using a 0.22 uM filter. (RPMIc denotes a RPMI 1640 culture medium (R0883, Sigma) supplemented with 5% heat-inactivated (56° C.,1 h) FCS 1.5 mM L-glutamine (G7513, Sigma), 100 U/ml penicillin and 100 ug/ml streptomycin, PEST (P0781, Sigma), hepes (H0887, Sigma), and gentamycin (G1272, Sigma)).
(§8) The interphase was carefully pipetted from the two tubes into 2x 50mi Falcon tubes. PBS was added up to 50 ml in each tube, and the tubes centrifuged for 10 min at 1700 RPM (4° C.).
(§9) The supernatant was discarded, and PBS added to 30 ml, whereupon the tubes were centrifuged at 10 min at 1500 RPM (4° C.). Again, the supernatant was discarded, 10 ml PBS added, and the pellets from the two falcon tubes pooled.
(§10) The cells were counted and left in PBS, then centrifuged at 1200 RPM, 10 min. Medium was then added to obtain the concentration of interest, and the cells counted (16 squares)×3. The mean value was calculated and multiplied with the dilution factor×10^4=cells/ml. Diluting the cells to 10 million/ml will result in 500.000 cells/50 ul medium, 6 million/ml will be 300.000/50 ul medium.
as §4
Approximately 500,000 PBMC cells per well, derived from blood from healthy human donors, were incubated for 48 hours in the presence of the different oligonucleotides. Specifically, SEQ.ID.NO 1, SEQ.ID.NO 2, SEQ.ID.NO 6 and SEQ.ID.NO 8. Following incubation, the wells were developed according to the kit supplier's recommendations and the average number of positive cells producing IL-10 per well were counted using an AID ELISpot reader system, (Autoimmun Diagnostika GmbH, Strassberg, Germany).

human PBMC [7] = test: Induction of IFN-alpha from healthy human PBMC (ELISpot); type: cell-based; details: PBMC from 10 healthy individuals, 48 hours; for induction of IFN-alpha producing cells: FIG. 13
Description: as §5, §6, §7, §8, §9, §10, §4
For this assay again 500,000 PBMC cells per well, derived from healthy human blood were incubated for 48 hours in the presence of the different oligonucleotides. Specifically, SEQ.ID.NO 1, SEQ.ID.NO 2, and SEQ.ID.NO 8. Following incubation, the wells were developed according to the kit suppliers recommendations and the average number of positive cells producing IFN-alpha per well were determined using an AID ELISpot reader.

human PBMC [8] = test: Induction of IFN-gamma from healthy human PBMC (ELISpot); type: cell-based; details: PBMC from 7 healthy individuals, 48 hours, FIG. 12
Description: as §5, §6
as §7, with “Sigma)). […]” for “Sigma)).”
The cells were counted and left in PBS, then centrifuged at 1200 RPM, 10 min. Medium was then added to obtain the concentration of interest, and the cells counted (16 squares)×3. The mean value was calculated and multiplied with the dilution factor×10^4=cells/ml. […]
Elispot assays where performed according to the manufactures recommended guidelines (MabTech) and the plates were analyzed using an AID ELISpot reader system (Autoimmun Diagnostika GmbH, Strassberg, Germany). […]

| Substance | influx of leukocytes in BALF compared to the control group [2] | influx of neutrophils in BALF compared to the control group [2] | number of infiltrating inflammatory cells in the BAL fluid [2] | induction of IFN-gamma compared to medium alone (murine spleen cells [3]) | concentration at which IL-10 producing cells are first induced (murine spleen cells [5]) [µM] | induction of IL-10 (positive spots per well) (murine spleen cells [5]) | induction of IL-10 producing cells (human PBMC [6]) | induction of IFN-alpha producing cells (human PBMC [7]) | also measured |
| --- | --- | --- | --- | --- | --- | --- | --- | --- | --- |
| 5′-G*A*A*ACAGATCGTCCAT*G*G*T-3′ (antisense GAAACAGATCGTCCATGGT; listed as DNA, chemistry not fully specified) [SEQ.ID.NO 3, (Mu p65)AS, CpG-containing ODN] | significantly reduced inflammatory response | significantly reduced inflammatory response | reduced numbers of infiltrating inflammatory cells | capable of inducing significant levels of IFN-gamma | 5 | induce significant levels of IL-10 | – | – | reduction in the number of recovered neutrophils in BAL ([1]; 150 μg by tracheal instillation 18 h prior to LPS, BALF 20 h after LPS): more than 50%; anti-inflammatory effect compared with dexamethasone ([1]; 150 μg intratracheal vs dexamethasone 10 mg/kg i.p. 1 h prior to LPS): at least as powerful as high-dose treatment with dexamethasone; neutrophils in BALF / neutrophilic response in the airways ([1]; 25, 100 or 150 μg by tracheal instillation 18 h prior to 5 μg LPS, BALF 20 h after LPS): dose-dependent reduction; also recorded: significantly reduced neutrophilic response; reduction in BAL fluid cell number verses control [4]: approximately 50% |
| 5′-G*A*A*ACAGATGCTCCAT*G*G*T-3′ (antisense GAAACAGATGCTCCATGGT; listed as DNA, chemistry not fully specified) [SEQ.ID.NO 4, (Mu p65 rev)AS] | no effect | no effect | little effect | no such inducing potential | – | no induction | – | – | – |
| 5′-G*G*A*ACAGTTGCTCCAT*G*G*C-3′ (antisense GGAACAGTTGCTCCATGGC; listed as DNA, chemistry not fully specified) [SEQ.ID.NO 2, (Hu p65 rev)AS] | – | – | – | – | – | – | failed to induce IL-10 | fails to induce any measurable levels of IFN-alpha | concentration from which IL-10 producing cells are induced (human PBMC [6]): around 100 uM; induction of IFN-gamma producing cells versus background (human PBMC [8]): background level is not exceeded |
| 5′-G*G*T GCA TCG ATG CAG*G*G*G*G*G-3′ (GGTGCATCGATGCAGGGGGG; listed as DNA, chemistry not fully specified) [SEQ.ID.NO 6] | – | – | – | – | – | – | strong potential to induce IL-10 | – | – |
| 5′-T*C*C*A*T*G*A*C*G*T*T*C*C*T*G*A*C*G*T*T-3′ [SEQ.ID.NO 7] | – | – | more dramatic level of inhibition being as effective as dexamethasone | capable of inducing significant levels of IFN-gamma | 0.1 | induce significant levels of IL-10 | – | – | – |
| 5′-T*C*G*T*C*G*T*T*T*T*G*T*C*G*T*T*T*T*G*T*C*G*T*T-3′ [SEQ.ID.NO 8] | – | – | – | – | – | – | strong potential to induce IL-10 | strong potential to induce IFN-alpha | concentration at which induction of IFN-alpha starts / is apparent (human PBMC [7]): 0.1 µM |
